Each structure is given as a SMILES string. pEC50: −log10 of the molar value.

In the first test the test system is Bloodstream form of Trypanosoma brucei, strain Lister 427. Briefly: Trypanosoma brucei growth inhibition assay (CellTiter-Glo, 24 h). It is filed as cell-based. As to conditions: T. Brucei Growth Inibition Assay, class symbols; read-out: T. Brucei GI EC50. In short, it runs like this:
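Bloodstream-form T. brucei Lister 427, 1500 parasites per well in supplemented IMDM with 10% FBS, were exposed to compound (DMSO ≤0.25% final) for 24 h at 37 °C. Viability was measured by CellTiter-Glo luminescence.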
A word on the pEC50: it is −log10 of the EC50, conventionally taken in molar units. With `O=C(Cc1c[nH]c2ccc(O)cc12)N1CCN(CCc2ccccc2)CC1c1ncc(-c2ccc3ccccc3c2)[nH]1` (stereo not drawn), the pEC50 was 5.30 to 6.00.

Staying with this test, now noted: Trypanosoma brucei; T. Brucei Growth Inibition Assay, class symbols; read-out: T. Brucei GI EC50.
Turning to `CN1CCN(S(=O)(=O)Cc2ccccc2)C(c2ncc(-c3ccc4ccccc4c3)[nH]2)C1` (stereo not drawn) [1-(benzylsulfonyl)-4-methyl-2-(5-(naphthalen-2-yl)-1H-imidazol-2-yl)piperazine], the pEC50 is 5.30 to 6.00.

Consider `COc1nc2ccccc2cc1-c1cnc(C2CN([S+]([O-])C(C)C)CCN2C(=O)Cc2c(C)[nH]c3ccc(F)cc23)[nH]1` (stereo not drawn) [2-(5-fluoro-2-methyl-1H-indol-3-yl)-1-(4-(isopropylsulfinyl)-2-(5-(2-methoxyquinolin-3-yl)-1H-imidazol-2-yl)piperazin-1-yl)ethan-1-one], for which the negative-log EC50 (pEC50) is 5.30 to 6.00.

In the case of `CN1CCN(C(=O)C2(c3ccccc3)CC2)C(c2ncc(-c3ccc4ccccc4c3)[nH]2)C1` (stereo not drawn), the pEC50 was 5.30 to 6.00.

For the compound `COc1nc2ccccc2cc1-c1cnc([C@@H]2CN(CC3COC3)CCN2C(=O)Cn2c(C(F)(F)F)nc3ccccc32)[nH]1` [(S)-1-(2-(5-(2-methoxyquinolin-3-yl)-1H-imidazol-2-yl)-4-(oxetan-3-ylmethyl)piperazin-1-yl)-2-(2-(trifluoromethyl)-1H-benzo[d]imidazol-1-yl)ethan-1-one], the negative logarithm of the EC50 (pEC50) is greater than 7.00.

Consider `COc1ccc2c(c1)C(CC(=O)N1CCN(CC3CCOC3)CC1c1ncc(-c3ccc4ccccc4c3)[nH]1)C(=O)N2` (stereo not drawn), for which the negative-log EC50 (pEC50) is 5.30 to 6.00.

For `COc1nc2ccccc2cc1-c1cnc(C2CN(CC3CCOC3)CCN2C(=O)Cn2c(C)nc3ccc(F)cc32)[nH]1` (stereo not drawn), the negative logarithm of the EC50 (pEC50) is 6.30 to 7.00.

Regarding `COc1ccc2[nH]c(C)c(CC(=O)N3CCN(CCCC(=O)O)CC3c3ncc(-c4ccc5ccccc5c4)[nH]3)c2c1` (stereo not drawn), the negative logarithm of the EC50 (pEC50) is 5.30 to 6.00.

Regarding `COc1ccc2nc(C(F)(F)F)n(CC(=O)N3CC[C@H](N[C@H]4CCOC4)C[C@H]3c3ncc(-c4cc5ccccc5nc4OC)[nH]3)c2c1` [2-(6-methoxy-2-(trifluoromethyl)-1H-benzo[d]imidazol-1-yl)-1-((2S,4S)-2-(5-(2-methoxyquinolin-3-yl)-1H-imidazol-2-yl)-4-(((S)-tetrahydrofuran-3-yl)amino)piperidin-1-yl)ethan-1-one], the negative logarithm of the EC50 (pEC50) is greater than 7.00.

As for `CN1CCN(C(=O)Cc2ccccc2)C(c2ncc(-c3ccc4ccccc4c3)[nH]2)C1` (stereo not drawn), the negative logarithm of the EC50 (pEC50) was 5.30 to 6.00.

With `CCCCCCN1CCN(C(=O)CC2=C(C)NC3C=CC=CC23)C(c2ncc(-c3cc4ccccc4nc3OC)[nH]2)C1` (stereo not drawn), the pEC50 was 6.30 to 7.00.

As to `COc1nc2ccccc2cc1-c1cnc(C2CN(CC3CCOC3)CCN2C(=O)Cn2nc3ccccc3n2)[nH]1` (stereo not drawn), the pEC50 is 5.30 to 6.00.

For the compound `COc1ccc2nc(C(F)(F)F)n(CC(=O)N3CCN(Cc4ccon4)CCC3c3ncc(-c4cc5ccccc5nc4OC)[nH]3)c2c1` (stereo not drawn) [1-(4-(isoxazol-3-ylmethyl)-7-(5-(2-methoxyquinolin-3-yl)-1H-imidazol-2-yl)-1,4-diazepan-1-yl)-2-(6-methoxy-2-(trifluoromethyl)-1H-benzo[d]imidazol-1-yl)ethan-1-one], the pEC50 was greater than 7.00.

As for `COc1ccc2nc(C(F)(F)F)n(CC(=O)N3CC[C@H](NCC(C)C)C[C@H]3c3ncc(-c4cc5ccccc5nc4OC)[nH]3)c2c1` [1-((2S,4S)-4-(isobutylamino)-2-(5-(2-methoxyquinolin-3-yl)-1H-imidazol-2-yl)piperidin-1-yl)-2-(6-methoxy-2-(trifluoromethyl)-1H-benzo[d]imidazol-1-yl)ethan-1-one], the negative logarithm of the EC50 (pEC50) was greater than 7.00.

Consider `COc1ccc2nc(C(F)(F)F)n(CC(=O)N3CC[C@H](N)C[C@H]3c3ncc(-c4cc5ccccc5nc4OC)[nH]3)c2c1` [1-((2S,4S)-4-amino-2-(5-(2-methoxyquinolin-3-yl)-1H-imidazol-2-yl)piperidin-1-yl)-2-(6-methoxy-2-(trifluoromethyl)-1H-benzo[d]imidazol-1-yl)ethan-1-one], for which the pEC50 is 5.30 to 6.00.

With `COc1ccc2nc(C(F)(F)F)n(CC(=O)N3CCN(Cc4ccn(C)n4)CCC3c3ncc(-c4cc5ccccc5nc4OC)[nH]3)c2c1` (stereo not drawn) [2-(6-methoxy-2-(trifluoromethyl)-1H-benzo[d]imidazol-1-yl)-1-(7-(5-(2-methoxyquinolin-3-yl)-1H-imidazol-2-yl)-4-((1-methyl-1H-pyrazol-3-yl)methyl)-1,4-diazepan-1-yl)ethan-1-one], the pEC50 was greater than 7.00.

In the case of `COc1nc2ccccc2cc1-c1cnc([C@@H]2CN(Cc3cnccn3)CCN2C(=O)Cn2c(C(F)(F)F)nc3ccccc32)[nH]1` [(S)-1-(2-(5-(2-methoxyquinolin-3-yl)-1H-imidazol-2-yl)-4-(pyrazin-2-ylmethyl)piperazin-1-yl)-2-(2-(trifluoromethyl)-1H-benzo[d]imidazol-1-yl)ethan-1-one], the negative logarithm of the EC50 (pEC50) is greater than 7.00.

Consider `COc1ccc2nc(C(F)(F)F)n(CC(=O)N3CC[C@H](NCc4cncn4C)C[C@H]3c3ncc(-c4cc5ccccc5nc4OC)[nH]3)c2c1` [2-(6-methoxy-2-(trifluoromethyl)-1H-benzo[d]imidazol-1-yl)-1-((2S,4S)-2-(5-(2-methoxyquinolin-3-yl)-1H-imidazol-2-yl)-4-(((1-methyl-1H-imidazol-5-yl)methyl)amino)piperidin-1-yl)ethan-1-one], for which the negative logarithm of the EC50 (pEC50) was greater than 7.00.

As to `COc1ccc2[nH]c(C)c(CC(=O)N3CCN(C)CC3c3ncc(-c4ccccc4)[nH]3)c2c1` (stereo not drawn), the pEC50 is 5.30 to 6.00.

Turning to `COc1ccc2nc(C(F)(F)F)n(CC(=O)N3CC[C@H](OC)C[C@H]3c3ncc(-c4cc5ccccc5nc4OC)[nH]3)c2c1` [1-((2S,4S)-4-methoxy-2-(5-(2-methoxyquinolin-3-yl)-1H-imidazol-2-yl)piperidin-1-yl)-2-(6-methoxy-2-(trifluoromethyl)-1H-benzo[d]imidazol-1-yl)ethan-1-one], the pEC50 is greater than 7.00.

`COc1ccc2nc(C(F)(F)F)n(CC(=O)N3CCN(Cc4ncco4)CCC3c3ncc(-c4cc5ccccc5nc4OC)[nH]3)c2c1` (stereo not drawn) [2-(6-methoxy-2-(trifluoromethyl)-1H-benzo[d]imidazol-1-yl)-1-(7-(5-(2-methoxyquinolin-3-yl)-1H-imidazol-2-yl)-4-(oxazol-2-ylmethyl)-1,4-diazepan-1-yl)ethan-1-one]: the negative logarithm of the EC50 (pEC50) was greater than 7.00.

With `CCCCCCN1CCN(C(=O)CC2=C(C)NC3C=CC=CC23)C(c2ncc(-c3cc4ccccc4nc3O)[nH]2)C1` (stereo not drawn), the negative-log EC50 (pEC50) is 5.30 to 6.00.

Take `COc1nc2ccccc2cc1-c1cnc(C2CN(CC3CCOC3)CCN2C(=O)c2cc(C)n(Cc3ccccc3)n2)[nH]1` (stereo not drawn): the pEC50 was 5.30 to 6.00.

For `COc1ccc2nc(C(F)(F)F)n(CC(=O)N3CCCCC3c3ncc(-c4cc5ccccc5nc4OC)[nH]3)c2c1` (stereo not drawn) [2-(6-methoxy-2-(trifluoromethyl)-1H-benzo[d]imidazol-1-yl)-1-(2-(5-(2-methoxyquinolin-3-yl)-1H-imidazol-2-yl)piperidin-1-yl)ethan-1-one], the pEC50 is greater than 7.00.

Take `O=C(Cc1n[nH]c2ccccc12)N1CCN(CCc2ccccc2)CC1c1ncc(-c2ccc3ccccc3c2)[nH]1` (stereo not drawn): the pEC50 is 5.30 to 6.00.

For the compound `COc1ccc2nc(C(F)(F)F)n(CC(=O)N3CCN(Cc4ncnn4C)C[C@H]3c3ncc(-c4cc5ccccc5nc4OC)[nH]3)c2c1` [(S)-2-(6-methoxy-2-(trifluoromethyl)-1H-benzo[d]imidazol-1-yl)-1-(2-(5-(2-methoxyquinolin-3-yl)-1H-imidazol-2-yl)-4-((1-methyl-1H-1,2,4-triazol-5-yl)methyl)piperazin-1-yl)ethan-1-one], the pEC50 was 6.30 to 7.00.

As to `CCC(=O)CCCN1CCN(C(=O)Cc2c(C)[nH]c3ccc(OC)cc23)C(c2ncc(-c3ccccc3)[nH]2)C1` (stereo not drawn), the pEC50 is 6.30 to 7.00.

For the compound `CN1CCN(C(=O)CCS(=O)(=O)c2ccccc2)C(c2ncc(-c3ccc4ccccc4c3)[nH]2)C1` (stereo not drawn), the negative-log EC50 (pEC50) was 5.30 to 6.00.

With `O=C(Cc1c[nH]c2ccc(O)cc12)N1CCN(CC2CCOC2)CC1c1ncc(-c2ccc3ccccc3c2)[nH]1` (stereo not drawn), the pEC50 was 6.00 to 6.29.

With `COc1ccc2nc(C(F)(F)F)n(CC(=O)N3CCN(Cc4noc(C)n4)CCC3c3ncc(-c4cc5ccccc5nc4OC)[nH]3)c2c1` (stereo not drawn), the negative-log EC50 (pEC50) was 6.30 to 7.00.

Take `COc1ccc2nc(C)n(CC(=O)N3CCN(Cc4nccs4)C[C@H]3c3ncc(-c4cc5ccccc5nc4OC)[nH]3)c2c1` [(S)-2-(6-methoxy-2-methyl-1H-benzo[d]imidazol-1-yl)-1-(2-(5-(2-methoxyquinolin-3-yl)-1H-imidazol-2-yl)-4-(thiazol-2-ylmethyl)piperazin-1-yl)ethan-1-one]: the pEC50 was greater than 7.00.

Consider `COc1ccc2[nH]c(C)c(CC(=O)N3CCNCC3c3ncc(-c4cc5ccccc5nc4OC)[nH]3)c2c1` (stereo not drawn), for which the negative-log EC50 (pEC50) is 6.00 to 6.29.

As to `COc1ccc2nc(C(F)(F)F)n(CC(=O)N3CCN(CC4CCOC4)C[C@H]3c3noc(-c4cc5ccccc5nc4OC)n3)c2c1` (stereo partly drawn) [2-(6-methoxy-2-(trifluoromethyl)-1H-benzo[d]imidazol-1-yl)-1-((2S)-2-(5-(2-methoxyquinolin-3-yl)-1,2,4-oxadiazol-3-yl)-4-((tetrahydrofuran-3-yl)methyl)piperazin-1-yl)ethan-1-one], the pEC50 was 5.30 to 6.00.

Regarding `COc1nc2ccccc2cc1-c1cnc([C@@H]2CN(Cc3nccs3)CCN2C(=O)Cn2c(C(F)(F)F)nc3ccccc32)[nH]1` [(S)-1-(2-(5-(2-methoxyquinolin-3-yl)-1H-imidazol-2-yl)-4-(thiazol-2-ylmethyl)piperazin-1-yl)-2-(2-(trifluoromethyl)-1H-benzo[d]imidazol-1-yl)ethan-1-one], the pEC50 is greater than 7.00.

In the case of `COc1ccc2nc(O)cc(C(=O)N3CCN(CC4CCOC4)CC3c3ncc(-c4cc5ccccc5nc4OC)[nH]3)c2c1` (stereo not drawn), the negative-log EC50 (pEC50) is 5.30 to 6.00.

Consider `COc1ccc2nc(C(F)(F)F)n(CC(=O)N3CCN(Cc4ccn(C)n4)CC[C@@H]3c3ncc(-c4cc5ccccc5nc4OC)[nH]3)c2c1` [(R)-2-(6-methoxy-2-(trifluoromethyl)-1H-benzo[d]imidazol-1-yl)-1-(7-(5-(2-methoxyquinolin-3-yl)-1H-imidazol-2-yl)-4-((1-methyl-1H-pyrazol-3-yl)methyl)-1,4-diazepan-1-yl)ethan-1-one], for which the negative logarithm of the EC50 (pEC50) is 5.30 to 6.00.

For the origin of these results see US10815222B2, “Compounds for use in the treatment of kinetoplastid infection” (C.N.C.C.S. S.c.a.r.l. COLLEZIONE NAZIONALE DEI COMPOSTI …, priority 2016, dated 2020).
